We go through 15 compounds from ChEMBL document CHEMBL1132512, “Substituted heterocyclic analogs as selective COX-2 inhibitors in the flosulide class” (Bioorg Med Chem Lett, 1999).

For assay [1], the target named is T1, Prostaglandin G/H synthase 1 (Homo sapiens, UniProt P23219). The assay is described as follows: Inhibition of Prostaglandin G/H synthase 1 activity in U937 microsomal assay. Type of assay: microsomes, Microsome.
The target in assay [2] is T2, Prostaglandin G/H synthase 2 (Homo sapiens, UniProt P35354).
T2 sequence (P35354 whole entry): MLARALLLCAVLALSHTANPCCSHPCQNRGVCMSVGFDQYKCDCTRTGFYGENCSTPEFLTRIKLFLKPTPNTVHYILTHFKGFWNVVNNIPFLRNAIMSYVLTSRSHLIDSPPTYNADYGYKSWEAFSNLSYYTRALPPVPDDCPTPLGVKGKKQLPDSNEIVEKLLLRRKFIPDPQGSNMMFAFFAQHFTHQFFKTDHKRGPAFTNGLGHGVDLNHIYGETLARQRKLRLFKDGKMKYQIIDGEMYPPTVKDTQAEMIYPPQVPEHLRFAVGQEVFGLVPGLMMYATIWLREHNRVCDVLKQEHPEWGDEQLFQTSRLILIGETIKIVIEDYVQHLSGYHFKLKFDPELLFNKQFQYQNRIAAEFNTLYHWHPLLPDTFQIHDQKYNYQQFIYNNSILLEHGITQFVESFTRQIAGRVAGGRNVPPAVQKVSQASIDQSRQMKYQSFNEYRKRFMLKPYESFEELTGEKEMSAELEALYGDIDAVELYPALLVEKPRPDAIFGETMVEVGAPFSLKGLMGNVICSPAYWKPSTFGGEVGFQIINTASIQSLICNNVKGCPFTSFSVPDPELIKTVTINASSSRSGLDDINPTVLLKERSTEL
In words: Inhibition of purified recombinant human Prostaglandin G/H synthase 2.

The target in assay [3] is T2, Prostaglandin G/H synthase 2. The assay is described as follows: Inhibition of human Prostaglandin G/H synthase 2 expressed in CHO (chinese hamster ovary) cells. Type of assay: cell-based.
The target in assay [4] is T1, Prostaglandin G/H synthase 1. The assay is described as follows: Inhibition of purified recombinant human Prostaglandin G/H synthase 1.
Assay [5] concerns Rattus norvegicus. In words: In vivo antiinflammatory activity expressed as 50% effective dose was evaluated at 5 hr post dosing in rat pyresis model. Type of assay: functional.
The test system of assay [6] is Rattus norvegicus. In words: In vivo antiinflammatory activity expressed as percent inhibition after administration of 3 mg/kg was evaluated in rat paw edema assay. It is filed as functional.
Assay [7] concerns Rattus norvegicus. In words: In vivo antiinflammatory activity expressed as 30% effective dose was evaluated in rat paw edema assay. It is filed as functional.
Assay [8] has as its system Rattus norvegicus. The assay is described as follows: In vivo antiinflammatory activity expressed as 50% effective dose was evaluated in rat paw edema assay. Type of assay: functional.

Molecules are shown by their SMILES.

T1 sequence (P23219 whole entry): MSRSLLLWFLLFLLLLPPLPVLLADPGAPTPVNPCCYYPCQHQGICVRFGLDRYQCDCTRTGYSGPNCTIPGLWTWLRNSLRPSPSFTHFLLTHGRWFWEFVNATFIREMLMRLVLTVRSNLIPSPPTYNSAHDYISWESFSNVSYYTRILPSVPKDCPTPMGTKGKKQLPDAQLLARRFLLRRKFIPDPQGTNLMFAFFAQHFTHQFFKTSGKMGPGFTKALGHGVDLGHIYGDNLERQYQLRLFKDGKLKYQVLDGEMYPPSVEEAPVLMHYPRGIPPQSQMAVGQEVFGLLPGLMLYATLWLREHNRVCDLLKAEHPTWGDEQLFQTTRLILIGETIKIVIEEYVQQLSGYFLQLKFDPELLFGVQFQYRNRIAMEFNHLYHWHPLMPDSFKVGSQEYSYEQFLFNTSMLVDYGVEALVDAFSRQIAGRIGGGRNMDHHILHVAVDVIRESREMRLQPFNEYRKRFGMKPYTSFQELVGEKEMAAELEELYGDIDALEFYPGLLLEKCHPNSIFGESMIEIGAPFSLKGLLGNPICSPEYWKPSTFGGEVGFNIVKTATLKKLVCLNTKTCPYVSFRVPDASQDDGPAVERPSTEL

Broadly, the IC50 is the concentration at which inhibition is half-maximal. `CS(=O)(=O)Nc1cc2c(cc1Sc1nccs1)C(=O)OC2`: the IC50 in assay [1] was 1300 nM; in assay [2], 610 nM; in assay [3], 27 nM; in assay [4], over 100000 nM.
Consider `CS(=O)(=O)Nc1cc2c(cc1Sc1ccc(F)cc1F)C(=O)CC2`, for which the IC50 was 1600 nM in assay [1] and over 100000 nM in assay [4].
For `CS(=O)(=O)Nc1cc2c(cc1Sc1nccs1)C(=O)CC2`, the IC50 in assay [1] was 13000 nM; in assay [2], 480 nM; in assay [3], 320 nM; in assay [4] it was over 100000 nM.
What is called ED50 is the dose at which the effect has come halfway, by size or by number of responders. A higher ED50 goes with a need for a large dose. By inhibition in vivo is commonly meant how much of the control response was suppressed. Higher therefore signals strong suppression. For the compound `CCc1csc(Sc2cc3c(cc2NS(C)(=O)=O)CCC3=O)n1`, the IC50 is 14000 nM in assay [1], 280 nM in assay [2], 49 nM in assay [3] and about 100000 nM in assay [4]. In the assay on Rattus norvegicus [5], this compound gave an ED50 of 8.1 mg/kg. Also, the inhibition in vivo at 3 mg/kg in the assay on Rattus norvegicus [6] was found to be 43%. This compound also gave an ED30 with Rattus norvegicus [7] of 0.3 mg/kg.
With `CS(=O)(=O)Nc1cc2c(cc1Sc1ncc(Cl)cc1Cl)C(=O)CC2`, the IC50 in assay [1] was 4900 nM; in assay [2], 360 nM; in assay [3] it was 120 nM; in assay [4] it was over 100000 nM. The compound further displayed an ED30 with Rattus norvegicus [7] of 0.7 mg/kg.
On to `CS(=O)(=O)Nc1cc2c(cc1Sc1ccccn1)C(=O)CC2`, for which the IC50 was over 30000 nM in assay [1], 810 nM in assay [2], 500 nM in assay [3] and over 100000 nM in assay [4].
Take `Cc1ccc(Sc2cc3c(cc2NS(C)(=O)=O)CCC3=O)nc1`: the IC50 in assay [1] was over 100000 nM; in assay [2], 1000 nM; in assay [3], 640 nM; in assay [4] it was over 100000 nM.
`Cc1csc(Sc2cc3c(cc2NS(C)(=O)=O)CCC3=O)n1`: the IC50 in assay [1] was 620 nM; in assay [2] it was 380 nM; in assay [3], 30 nM; in assay [4], over 100000 nM.
For `Cc1nc(Sc2cc3c(cc2NS(C)(=O)=O)CCC3=O)sc1C`, the IC50 in assay [1] was over 100000 nM; in assay [2] it was 1700 nM; in assay [3] it was over 1800 nM; in assay [4] it was over 100000 nM.
As for `C=Cc1csc(Sc2cc3c(cc2NS(C)(=O)=O)COC3=O)n1`, the IC50 in assay [1] is 12000 nM; in assay [2], 310 nM; in assay [3], 140 nM; in assay [4], over 100000 nM.
The corresponding values for `CS(=O)(=O)Nc1cc2c(cc1Sc1ncccc1Cl)C(=O)CC2` are 6100 nM, 520 nM, 220 nM and over 100000 nM.
For the compound `CSc1csc(Sc2cc3c(cc2NS(C)(=O)=O)COC3=O)n1`, the IC50 in assay [1] was 9300 nM; in assay [2], 290 nM; in assay [3] it was 11000 nM; in assay [4], over 100000 nM.
In the case of `Cc1cnc(Sc2cc3c(cc2NS(C)(=O)=O)CCC3=O)s1`, the IC50 was over 100000 nM in assay [1], 1500 nM in assay [2], 870 nM in assay [3] and over 100000 nM in assay [4].
On to `CCc1csc(Sc2cc3c(cc2NS(C)(=O)=O)COC3=O)n1`, for which the IC50 is 6300 nM in assay [1], 1000 nM in assay [2], 13 nM in assay [3] and over 100000 nM in assay [4]. Further, the ED50 in the assay with Rattus norvegicus [8] came out at 0.93 mg/kg; with Rattus norvegicus [5] it was 2.7 mg/kg. Besides, the inhibition in vivo at 3 mg/kg in the assay with Rattus norvegicus [6] was determined as 65%. In addition, in the assay with Rattus norvegicus [7], the ED30 is 0.16 mg/kg.
Take `Cc1csc(Sc2cc3c(cc2NS(C)(=O)=O)COC3=O)n1`: the IC50 was 350 nM in assay [1], 6900 nM in assay [2], 43 nM in assay [3] and over 100000 nM in assay [4].
